Data published in patent publication US7495027B2, “3-aryl-4-hydroxyfuranone compounds and the human and animal health use thereof” (Wyeth, priority 2003, dated 2009).
≈ marks a conversion by molar mass, not a printed value. Where two headings read alike, the source gives them in different places.

Tests used:
[1] = target: E. coli Uridine-diphosphate-N-acetvimuramoyl: L-alanine lipase, MurC (Escherichia coli, UniProt P17952); assay: Inhibitory activity against MurC (E. coli); type: biochemical
Procedure: S. aureus and E. coli Uridine-diphosphate-N-acetvimuramoyl: L-alanine lipase, MurC
The buffer is prepared from aqueous reagents with the following final concentrations: 83 mM Tris/HCl (pH 8.0), 50 mM MgC12, and 2 mM ATP.
(§1) Preparation of Enzyme Solution:
A 1 mg/mL stock solution of MurC is prepared in a buffer consisting of 20 mM Tris/HCl (pH 8.5) with 2.5 μM BME. The stock solution is further diluted with the buffer to give a final enzyme concentration of 100 μg/mL for the E. coli stock solution and 70 μg/mL for the S. aureus stock solution.
(§2) Preparation of Test Compound Solutions:
(§3) All test solutions are prepared in DMSO as 10 mg/mL, then diluted with 50 mM Tris/HCl (pH 8.5) to 100 μg/mL.
(§4) Preparation of Stop Solution:
The stop solution is prepared by stirring 1 part 4.2% ammonium molydbate in 4N HCl with 2 parts 0.045% malachite green for 30 min.
In this evaluation, the inhibitory activity of a test compound against MurC, the enzyme which catalyzes the third step of bacterial cell wall bioxynthesis is determined. Experiments are performed by adding 2.5 μl buffer, 2.5 μl 0.5M NH4SO2, 5 μl 2 μM L-Ala, 5 μl enzyme solution and 6.5 μl test compound solution to each well in a 96-well microplate. After a pre-incubation period of 10 mins. at 23° C., 3.75 μl of a 0.75 μM solution of UDP-MurNac is added to each well. Following an incubation period of 10 mins. at 37° C., 210 μl stop solution and 50 μl of a 34% w/v sodium citrate solution are added and color is allowed to develop for 10 mins. at 23° C. (Lanzetta et al., Analytical Biochemistry, 1979, 95) Optical density readings are taken at 660 nm using a Molecular Devices Spectra Max 250 with Soft Max software. Controls are performed using the same procedure and omitting the addition of UDP-MurNac.
Using these values the IC50 is determined by linear regression analysis.

[2] = target: E. coli Uridine-diphosphate-N-acetylmuramoyl-L-alanine: D-glutamate liease, MurD (Escherichia coli, UniProt P14900); assay: biochemical; details: (E) E. coli enzyme
Procedure: S. aureus and E. coli Uridine-diphosphate-N-acetylmuramoyl-L-alanine: D-glutamate liease, MurD
The buffer is prepared from aqueous reagents with the following final concentrations: 83 mM Tris/HCl (pH 8.0), 50 mM MgCl2, and 2 mM ATP.
as §1, §2, §3, §4
In this evaluation, the inhibitory activity of a test compound against MurD, the enzyme which catalyzes the fourth step of bacterial cell wall biosynthesis is determined.

[3] = target: E. coli Enopyruvyl-UPD-N-acetylglucosamine reductase, Mur B (Escherichia coli, UniProt P08373); assay: biochemical; details: (E) E. coli enzyme; for IC50: read-out: MurB IC50 (converted)
Procedure: S. aureus and E. coli Enopyruvyl-UPD-N-acetylglucosamine reductase, Mur B
Preparation of Tris/BME buffer:
Dilute 17.5 uL of aqueous 5 mM BME (2-mercaptoethanol) to 50 mL with 50 mM Tris/HCl (pH 8.0).
as §1
Dilute aqueous MurB stock solution (0.94 mg/mL) with 200 parts 50 mM Tris/2-BME buffer.
Synthesis of Substrate for MurB (MurA Product EP-UDP-GluNAc):
A mixture of 13 mg UDP-N-acetylglucosamine and 5.5 mg phosphoenolpyruvate are dissolved in 10 mL Tris/BME buffer forming 2 mM concentrations of each reagent in solution.
Preparation of Assay Buffer:
The assay buffer is prepared in water from reagents with the following final concentrations: 100 mM Tris/HCl (pH 8.0), 200 μM NADPH, 100 μM MurB substrate, 10 μM 2-mercaptoethanol, and 10 μM KCl.
Experiments are performed by adding 20 μL of a solution of test compound in a mixture of dimethylsulfoxide and water and 30 μL of enzyme solution to a well. After a pre-incubation period of 20 mins. at 23° C., 50 μL of Tris/BME buffer and 100 μL of assay buffer are added. […] Controls are performed using the same procedure and employing 20 μL of a blank dimethylsulfonide and solvent mixture in place of the test compound solution.
Using these values, the IC50 for each test compound is determined by linear regression analysis.

[4] = system: Streptococci; assay: Minimum inhibitory concentration, microdilution broth method, streptococci; type: cell-based; details: Mueller-Hinton broth with 5% horse blood, 18-22 hours at 35° C.; for MIC: S. pneumo GC 1894
Procedure: (§5) Evaluation of the Minimum Inhibitory Concentration of Test Compounds Against A Variety of Bacterial Strains
(§6) In this evaluation the minimal inhibitory concentration (MIC) of test compounds against Gram positive and Gram negative bacteria is performed using the microdilution broth method as recommended by the National Committee for Clinical Laboratory Standards (Approved Standards M7-A5 2000). Mueller-Hinton broth is used for the enterobacteriaceae, staphylococci and enterococci. Streptococci are also tested in Mueller-Hinton broth supplemented with 5% horse blood (LHB). Test organisms include recent clinical isolates that are resistant to methicillin, penicillin and/or vancomycin. […].

[5] = system: enterococci; assay: Minimum inhibitory concentration, microdilution broth method, enterococci; type: cell-based; details: Mueller-Hinton broth, 18-22 hours at 35° C.; for MIC: Enterococcus faecalis
Procedure: as §5, §6

[6] = system: staphylococci; assay: Minimum inhibitory concentration, microdilution broth method, staphylococci; type: cell-based; details: Mueller-Hinton broth, 18-22 hours at 35° C.; for MIC: Staphylococcus aureus
Procedure: as §5, §6

[7] = target: E. coli UDP-N-acetylglucosamine enolpyruvoyl transferase, MurA (Escherichia coli, UniProt P0A749); assay: biochemical; details: (E) E. coli enzyme
Procedure: Evaluation of the Inhibitory Activity of Test Compounds Against Enzymes which Catalyze Bacterial Cell Wall Biosynthesis
S. aureus and E. coli UDP-N-acetylglucosamine enolpyruvoyl transferase, MurA
as §1
The enzyme solution is prepared by admixing the following: 50 mM Tris/HCl pH 8.0, […] 1 M Tris, 5 mM DTT, […] 1 M DTT, 20% Glycerol 4 ml 50% Glycerol, add water to 10 ml.
as §4
A procedure similar to that described by C. […] Experiments are performed by adding a solution of test compound (in a mixture of dimethylsulfoxide and water) and an enzyme solution to a well. After a pre-incubation period of 10 mintues at 37° C., Tris/BME buffer and assay buffer are added. A start point optical density (OD0) reading is taken at 340 nm immediately following the addition of assay buffer. After incubation for 1 hr at 37° C., the stop solution is added and the color is allowed to develop for 30 minutes.

[8] = (E) E. coli enzyme, read-out: MurC IC50 (converted)
[9] = E. faecalis GC 2242, read-out: MIC E. faecalis GC 2242
[10] = E. faecalis GC 4555, read-out: MIC E. faecalis GC 4555
[11] = S. aureus GC 1131, read-out: MIC S. aureus GC 1131
[12] = S. aureus GC 4543, read-out: MIC S. aureus GC 4543

Sequence of E. coli Enopyruvyl-UPD-N-acetylglucosamine reductase, Mur B (P08373 whole entry): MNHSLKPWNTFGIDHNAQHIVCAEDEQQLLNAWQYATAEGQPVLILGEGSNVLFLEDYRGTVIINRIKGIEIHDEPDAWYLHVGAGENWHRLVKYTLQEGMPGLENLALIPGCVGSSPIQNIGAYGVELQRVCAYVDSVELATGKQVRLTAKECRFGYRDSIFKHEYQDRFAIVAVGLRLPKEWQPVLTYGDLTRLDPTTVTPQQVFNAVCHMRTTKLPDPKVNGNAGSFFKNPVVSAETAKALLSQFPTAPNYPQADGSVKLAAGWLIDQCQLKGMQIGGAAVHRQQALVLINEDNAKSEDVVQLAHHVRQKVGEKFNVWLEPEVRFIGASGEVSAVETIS
Sequence of E. coli Uridine-diphosphate-N-acetvimuramoyl: L-alanine lipase, MurC (P17952 whole entry): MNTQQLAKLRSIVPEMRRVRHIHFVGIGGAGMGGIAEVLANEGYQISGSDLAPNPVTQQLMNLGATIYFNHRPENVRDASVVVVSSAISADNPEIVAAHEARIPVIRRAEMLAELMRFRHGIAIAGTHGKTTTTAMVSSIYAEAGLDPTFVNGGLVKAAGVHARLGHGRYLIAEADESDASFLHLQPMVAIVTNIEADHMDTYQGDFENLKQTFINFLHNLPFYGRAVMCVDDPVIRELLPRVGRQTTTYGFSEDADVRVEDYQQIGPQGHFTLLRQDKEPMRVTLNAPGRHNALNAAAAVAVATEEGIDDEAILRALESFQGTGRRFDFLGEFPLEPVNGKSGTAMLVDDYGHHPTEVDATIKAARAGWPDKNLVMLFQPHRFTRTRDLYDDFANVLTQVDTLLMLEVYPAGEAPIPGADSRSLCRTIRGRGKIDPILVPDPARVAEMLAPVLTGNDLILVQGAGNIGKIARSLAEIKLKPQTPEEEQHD
Sequence of E. coli Uridine-diphosphate-N-acetylmuramoyl-L-alanine: D-glutamate liease, MurD (P14900 whole entry): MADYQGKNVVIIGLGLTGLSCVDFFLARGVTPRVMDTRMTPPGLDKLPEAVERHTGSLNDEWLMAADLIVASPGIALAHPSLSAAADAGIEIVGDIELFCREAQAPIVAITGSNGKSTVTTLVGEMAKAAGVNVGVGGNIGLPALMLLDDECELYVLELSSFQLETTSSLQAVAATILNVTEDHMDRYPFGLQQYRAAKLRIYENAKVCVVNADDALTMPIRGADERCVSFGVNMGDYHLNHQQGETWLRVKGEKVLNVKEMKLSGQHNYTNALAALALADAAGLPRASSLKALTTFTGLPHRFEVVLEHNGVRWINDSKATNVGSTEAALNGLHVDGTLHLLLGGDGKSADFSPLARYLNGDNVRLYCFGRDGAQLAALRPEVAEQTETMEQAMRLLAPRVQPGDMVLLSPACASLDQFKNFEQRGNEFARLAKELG
Sequence of E. coli UDP-N-acetylglucosamine enolpyruvoyl transferase, MurA (P0A749 whole entry): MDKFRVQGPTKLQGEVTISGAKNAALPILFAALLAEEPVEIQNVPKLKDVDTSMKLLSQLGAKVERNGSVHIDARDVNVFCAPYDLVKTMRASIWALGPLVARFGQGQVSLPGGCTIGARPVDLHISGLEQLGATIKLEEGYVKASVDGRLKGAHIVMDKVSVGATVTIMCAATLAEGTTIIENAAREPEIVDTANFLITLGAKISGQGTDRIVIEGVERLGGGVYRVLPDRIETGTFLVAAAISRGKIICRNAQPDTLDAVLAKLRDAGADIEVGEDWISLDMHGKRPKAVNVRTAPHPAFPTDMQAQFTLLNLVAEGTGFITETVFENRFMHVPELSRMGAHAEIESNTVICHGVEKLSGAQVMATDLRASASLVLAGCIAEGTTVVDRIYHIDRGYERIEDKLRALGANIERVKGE

Q: Which results are given for `O=C1O/C(=C\c2cc(F)cc(C(F)(F)F)c2)C(O)=C1c1cccc(-c2ccccc2)c1` [Example 112]?
A: IC50 [1, 8]: 23.5 µM; IC50 [2]: > 58.6 µM; IC50 [3]: 11.7 µM; MIC S. pneumo GC 1894 [4]: 0.25 µg/mL (≈ 0.586 µM); MIC E. faecalis GC 2242 ([5]; E. faecalis GC 2242): 2 µg/mL (≈ 4.69 µM); MIC E. faecalis GC 4555 ([5]; E. faecalis GC 4555): 8 µg/mL (≈ 18.8 µM); MIC S. aureus GC 1131 ([6]; S. aureus GC 1131): 2 µg/mL (≈ 4.69 µM); MIC S. aureus GC 4543 ([6]; S. aureus GC 4543): 4 µg/mL (≈ 9.38 µM)

Q: Which IC50 [1, 8] does the source give for `O=C1O/C(=C\c2cc(C(F)(F)F)ccc2Cl)C(O)=C1c1ccc(-c2ccccc2)cc1` [Example 125] here?
A: 2.26 µM

Q: What about the IC50 [7] of the same molecule?
A: 9.03 µM

Q: And the IC50 [2]?
A: 45.2 µM

Q: And the IC50 [3]?
A: 11.3 µM

Q: And the MIC [4]?
A: 0.5 µg/mL (≈ 1.13 µM)

Q: And the MIC [5, 9]?
A: 4 µg/mL (≈ 9.03 µM)

Q: What about the MIC [5, 10] of the same molecule?
A: 8 µg/mL (≈ 18.1 µM)

Q: And the MIC [6, 11]?
A: 2 µg/mL (≈ 4.52 µM)

Q: What about the MIC [6, 12] of the same molecule?
A: 2 µg/mL (≈ 4.52 µM)

Q: Which results are given for `CCOc1ccc(-c2ccc(C3=C(O)/C(=C/c4ccc(Cl)c(C(F)(F)F)c4)OC3=O)cc2)cc1` [Example 124]?
A: IC50 [1, 8]: > 51.3 µM; IC50 [7]: 28.8 µM; IC50 [2]: > 51.3 µM; IC50 [3]: 24.6 µM; MIC [4]: 1 µg/mL (≈ 2.05 µM); MIC [5, 9]: 16 µg/mL (≈ 32.9 µM); MIC [5, 10]: 32 µg/mL (≈ 65.7 µM); MIC [6, 11]: 32 µg/mL (≈ 65.7 µM); MIC [6, 12]: 32 µg/mL (≈ 65.7 µM)

Q: For `O=C1O/C(=C\c2cc(C(F)(F)F)ccc2Cl)C(O)=C1c1ccc(-c2ccccc2)c(F)c1` [Example 126], which “MurC IC50” value ([1]; (E) E. coli enzyme) is on record?
A: 5 (E) μg/mL

Q: What about the “MurA IC50” value [7] of the same molecule?
A: 3 (E) μg/mL

Q: What about the “MurD IC50” value [2] of the same molecule?
A: 9 (E) μg/mL

Q: What about the “MurB IC50” value [3] of the same molecule?
A: 1 (E) μg/mL

Q: And the MIC [4]?
A: 0.25 µg/mL (≈ 0.543 µM)

Q: And the MIC [5, 9]?
A: 1 µg/mL (≈ 2.17 µM)

Q: And the MIC [5, 10]?
A: 4 µg/mL (≈ 8.68 µM)

Q: And the MIC [6, 11]?
A: 1 µg/mL (≈ 2.17 µM)

Q: And the MIC [6, 12]?
A: 1 µg/mL (≈ 2.17 µM)

Q: What does the source list for `O=C1O/C(=C\c2ccccc2C(F)(F)F)C(O)=C1c1ccc(-c2ccccc2)cc1` [Example 99, 3-[1.1′-Biphenyl]-4-yl-4-hydroxy-5-{(Z)-[2-(trifluoromethyl)benzylidene]}-5H-furan-2-one]?
A: IC50 ([1]; MurC IC50, (E) E. coli enzyme): 9.79 µM; IC50 [7]: 9.79 µM; IC50 [2]: > 61.2 µM; IC50 [3]: 14.7 µM; MIC [4]: 0.25 µg/mL (≈ 0.612 µM); MIC [5, 9]: 4 µg/mL (≈ 9.79 µM); MIC [5, 10]: 16 µg/mL (≈ 39.2 µM); MIC [6, 11]: 4 µg/mL (≈ 9.79 µM); MIC [6, 12]: 2 µg/mL (≈ 4.9 µM)

Q: What does the source list for `O=C1O/C(=C\c2ccc(-c3ccccc3)cc2)C(O)=C1c1cccc2ccccc12` [Example 50]?
A: MurC IC50 ([1]; (E) E. coli enzyme): 9 (E) μg/mL; MurA IC50 [7]: 16 (E) μg/mL; MIC [4]: 4 µg/mL (≈ 10.2 µM); MIC [5, 9]: 8 µg/mL (≈ 20.5 µM); MIC [5, 10]: 32 µg/mL (≈ 82 µM); MIC [6, 11]: 8 µg/mL (≈ 20.5 µM); MIC [6, 12]: 4 µg/mL (≈ 10.2 µM)
